Here are results for six compounds from US5587382A, “6,9-bis[(2-aminoethyl) amino]benzo [g]isoquinoline-5,10- dione dimaleate; an aza-anthracenedione with reduced cardiotoxicity” (priority 1995, dated 1996).

Molecules are shown by their SMILES.

Data set [1] concerns heart. The data set is described as follows: Cardiotoxic effects (general statement of the invention). The following applies: in vivo.
Data set [2] can be described thus: Cyclic voltammetry in aqueous media (redox potential). Type of data set: physicochemical. To be noted: for E1/2 (reduction potential): room temperature, saturated calomel reference, scan rate 0.4 V/s. The procedure:
The anthracene 9,10-dione moiety is known to undergo redox processes. The results of cyclic voltammetry measurements in aqueous media are reported in FIG. 1 and summarized as reduction potentials in Table 1.
Cyclic voltammetry (CV) measurements were performed at room temperature using an Amel scanning potentiostat at the following settings: Initial potential -0.1 V, switching potential […], scan rate 0.4 V/s. A three electrode system was used with a reference saturated calomel electrode and a platinum wire counter electrode; a hanging mercury drop electrode (HMDE, Metrohm) was the working electrode.

Another data set has as its system tumors. The following applies: cited from earlier work; for antitumor activity: in vivo; for cardiac toxicity (background): clinical / background.
Data set [3] relates to heart. The data set is described as follows: Histopathological evaluation of potential cardiotoxic effect in nude mice during antitumor activity tests (MX-1 bearing). Format: in vivo, mouse (CD1 Nu/Nu female). To be noted: for cardiotoxicity (conclusion): antitumor protocol, equiactive doses. As to the method: During an antitumor activity experiment histopathologic examination was carried out on plastic sections (blue toluidine stained) of hearts of some animals sacrificed at the end of the observation period.
In this experiment (Table 2) CD1 Nu/Nu female mice (8 animals/groups) were transplanted sc with tumor fragments of human mammary carcinoma MX-1. BBR 2778 (60 mg/kg/day) and mitoxantrone (4.5 mg/kg/day) (i.e., at their equiactive doses) were i.v. given once a week for three weeks when tumor weight reached an average of 100-200 mg; animals were sacrificed 60 days after the last treatment.
Myocardial lesions were scored according to Bertazzoli, C. et al. (1979) Cancer Treat., Rep.: 63, 1877-1883. Briefly, lesions are scored as follows:
1: sarcoplasmatic microvacuolizations and/or inclusions, and either interstitial or cellular edema;
2: as in 1 plus either sarcoplasmatic macrovacuolizations or one or more of atrophy, necrosis, fibrosis, endocardial lesions and thrombi;
0.5: less than 10 single altered myocytes in the whole heart section;
1: scattered single altered myocytes (>10);
2: scattered small groups of altered myocytes;
3: widely spread small groups of altered myocytes;
4: confluent groups of altered myocytes;
The product of severity degree (1 or 2) times the extension degree (from 0 to 5) gives the T.C.S. (total cardiotoxicity score, graded from 0 to 10) for each animal. Mean Total Score (M.T.S.) for each group is calculated from T.C.S. of all the group animals.

Another data set deals with leukemia. The data set is described as follows: Previous antitumor activity studies against leukemia in CD2F1 mice. Format: in vivo, mouse (CD2F1). The following applies: BBR 2778 12 mg/kg/day, mitoxantrone 3 mg/kg/day i.v.
Data set [4] concerns heart. The data set is described as follows: Single dose cardiotoxicity in i.v. treated rats (Study No. 1). To be noted: 6 weeks; for Heart Weight (%): control 100. Type of data set: in vivo, rat (S.D. Crl:CDBR, male). The text has this:
(§1) In the rat (Study No. 1, Table No. 3), the respective effects on the myocardium of BBR 2778 and mitoxantrone were compared. Both drugs were i.v. administered in single equitoxic doses (LD10). In the mouse (Study No. 2, Table No. 4), the respective effects on the myocardium of BBR 2778, mitoxantrone, and doxorubicin, using multiple i.v. equiactive doses with similar activity on solid tumors, were compared. Also in the mouse, in a different study (Study No. 3, Table No. 5), the respective effect on the myocardium of i.v. BBR 2778 dose-active range on murine leukemia was compared with mitoxantrone.
(§2) Cardiac lesions in the three studies were evaluated in accordance with a qualitative/quantitative method expressly devised for anthracyclines (Bertazzoli C. et al. Cancer Treat. Rep. 63:1877-1883, 1979; Solcia E. et al. Tumori, 67:461-472, 1981).
Strain: S.D. (Crl:CDBR)
mixtoxantrone 4.9 mg/kg
(§3) heart weight and microscopic lesions
paraffin sections of heart (formalin fixed
and haematoxilineos in stained) collected 6
(§4) the product of severity degree (1 or 2)
(§5) times the extension degree (from 0 to 5)
(§6) gives the T.C.S. (Total Cardiotoxicity
(§7) Score, graded from 0 to 10) for each
(§8) animal. M.T.S. (Mean Total Score) for each
(§9) group is calculated from the T.C.S. of all

The test system of data set [5] is heart. The data set is described as follows: Multiple dose cardiotoxicity in i.v. treated mice (Study No. 2). Type of data set: in vivo, mouse (C57BL/6NCrlBR, female).
Excerpt: as §1, §2, §3
(§10) plastic sections of heart (formalin fixed
and blue toluidine stained) collected 60
and 90 days from the first treatment
as §4, §5, §6, §7, §8, §9

For the next data set, the system named is human liver. To be noted: metabolic reduction by NADPH; cited from earlier work.
The next data set deals with myocardium. To be noted: mice; cited from earlier work.
For data set [6] the following is noted: equivalent concentrations; cited from earlier work.
For data set [7] the following is noted: polarographic; Showalter et al 1986; cited from earlier work.
In data set [8] the test system is heart. The data set is described as follows: Multiple dose cardiotoxicity in i.v. treated mice (Study No. 3). Type of data set: in vivo, mouse (CD1, female).
Excerpt: as §1, §2
______________________________________
mixtoxantrone 1.1, 1.8 & 2.5
Treatment: twice a week for 5 weeks (10 dosing)
low- and mid- dose treated groups;
twice a week for 4 weeks (7 dosing) in high-
dose treated groups. In these groups, the
administration was suspended because of the
high-dose treated group.
as §10
and blue toluidine stained) collected 78
and 139 days from the first administration
as §4, §5, §6, §7, §8, §9

A further data set relates to bone marrow. The data set is described as follows: Myelotoxicity study (RBC, WBC, PLT counts). Format: in vivo, mouse (CD2F1, male). To be noted: 3 mg/kg/day i.v. days 1, 4, 7; at nadir day. The procedure: Using CD2F1 mice, the respective effects on the bone marrow of BBR 2778 and mitoxantrone were compared. The drugs were administered i.v. in multiple doses.
Compounds: BBR 2778 12 mg/kg/day
mixtoxantrone 3 mg/kg/day
Parameters: red blood cells (RBC), white blood cells
Equipment: Delcon Cellanalyzer CA580A

Setting [9] is: cyclic voltammetry, aqueous media.
The mark [10] stands for this setting: 65.1 mg/kg i.v. single dose (LD10).
The mark [11] stands for this setting: 6 mg/kg i.v., cumulative 24 mg/kg, 60 days after first administration.
Where [12] appears, read: 6 mg/kg i.v., cumulative 24 mg/kg, 90 days after first administration.
Where [13] appears, read: 7.5 mg/kg i.v., cumulative 30 mg/kg, 60 days after first administration.
The mark [14] stands for this setting: 7.5 mg/kg i.v., cumulative 30 mg/kg, 90 days after first administration.
Setting [15] is: 3 mg/kg i.v., cumulative 12 mg/kg, 60 days after first administration.
Where [16] appears, read: 3 mg/kg i.v., cumulative 12 mg/kg, 90 days after first administration.
Setting [17] is: 4 mg/kg i.v., cumulative 16 mg/kg, 60 days after first administration.
Setting [18] is: 4 mg/kg i.v., cumulative 16 mg/kg, 90 days after first administration.
The mark [19] stands for this setting: 4.9 mg/kg i.v. single dose (LD10).

Turning to `NCCNc1ccc(NCCN)c2c1C(=O)c1ccncc1C2=O` [6,9-bis[(2-aminoethyl)amino]benzo[g]isoquinoline-5,10-dione], the cardiotoxic effects result in the data set on heart [1] is given as “devoid of cardiotoxic effects”.
For `O=C1c2ccccc2C(=O)c2c(NCCNCCO)ccc(NCCNCCO)c21` [Ametantrone], the “E1/2 (reduction potential)” value in data set [2] (setting [9]) is reported as -0.68. Moreover, the antitumor activity result in the data set with tumors is “significant antitumor activity”.
With `NCCNc1ccc(NCCN)c2c1C(=O)c1ccncc1C2=O.O=C(O)/C=C\C(=O)O.O=C(O)/C=C\C(=O)O` [BBR 2778, 6,9-bis[(2-aminoethyl)amino]benzo[g]isoquinoline-5,10-dione dimaleate], in [2] (setting [9]), the redox process result is “reversible” and the “E1/2 (reduction potential)” value is -0.54. The “reduction potential lower than for mitoxantrone (difference)” value in data set [2] (vs mitoxantrone) is reported as 0.2-0.3 V. In the data set with heart [1], the cardiotoxic effects entry is “devoid of cardiotoxic effects”. Moreover, the “cardiotoxicity (conclusion)” value in the data set on heart [3] is reported as “does not exert significant cardiotoxicity patterns”. Besides, in the data set on leukemia, the “antitumor efficacy against leukemia at the dose and schedule employed” value is listed as “equally effective”. Besides, in the data set with heart [4] (setting [10]), the “M.T.S. (Mean Total Score)” value came out at 0, the “No. affect. hearts / No. exam. hearts” value is 1/9 and the “Heart Weight (%)” value is -6%.
In the case of `COc1cccc2c1C(=O)c1c(O)c3c(c(O)c1C2=O)C[C@@](O)(C(=O)CO)C[C@@H]3O[C@H]1C[C@H](N)[C@H](O)[C@H](C)O1` [Doxorubicin], in the data set with tumors, the “cardiac toxicity (background)” value was “severe cumulative and irreversible cardiac toxicity”. Further, the antitumor activity entry in the data set on tumors was “outstanding antitumor activity”. For the same compound, the M.T.S. with heart [5] (setting [11]) came to 1; in the data set with heart [5] (setting [12]) it was 1.1; in the data set with heart [5] (setting [13]) it was 1.5; in the data set on heart [5] (setting [14]), 2.2. Moreover, the “No. affect. hearts / No. exam. hearts” value in the data set on heart [5] (setting [11]), in the data set with heart [5] (setting [12]), with heart [5] (setting [13]) and with heart [5] (setting [14]) was 6/6 each time.
Take `O=C1c2c(O)ccc(O)c2C(=O)c2c(NCCNCCO)ccc(NCCNCCO)c21` [Mitoxantrone]: in data set [2] (setting [9]), the “E1/2 (reduction potential)” value is on record as -0.74. Further, the “microsomal O2.^- formation” value with human liver is “does not result in a significant increase in microsomal O2.^- formation”. In addition, the “focal myocardial damage (histology)” value in the data set with myocardium is given as “high incidence of focal myocardial damage in mice similar to that observed with doxorubicin”. The “cardiac toxicity (background)” value with tumors is reported as “diminished cardiotoxicity when compared to doxorubicin”. In addition, the “toxic side effects in clinical studies relative to doxorubicin” value in the data set on tumors (clinical studies) is listed as “far less toxic side effects than those resulting from doxorubicin therapy”. Also, the “in vitro efficacy relative to doxorubicin” value in [6] is on record as “higher efficacy than doxorubicin at equivalent concentrations”. For the same compound, the “No. affect. hearts / No. exam. hearts” value in the data set with heart [3] (4.5 mg/kg/day i.v. q7d × 3) is given as 5/5; in the data set with heart [5] (setting [15]), 6/6; in the data set on heart [5] (setting [16]), 5/5; in the data set with heart [5] (setting [17]), 6/6; in the data set on heart [5] (setting [18]) it was 6/6; in the data set on heart [8] (2.5 mg/kg i.v., cumulative 17.5 mg/kg, 139 days after first administration), 0/0. In the data set with heart [4] (setting [19]), the “No. affect. hearts / No. exam. hearts” value is given as 7/7. Further, the “cardiotoxicity (conclusion)” value in the data set on heart [3] is given as “strongly cardiotoxic”. Moreover, the M.T.S. is on record as 1.4 in the data set with heart [5] (setting [15]); 2.6 in the data set with heart [5] (setting [16]); 1.25 with heart [5] (setting [17]); 2.5 in the data set on heart [5] (setting [18]); 4 in the data set with heart [8] (1.1 mg/kg i.v., cumulative 11 mg/kg, 78 days after first administration); 6 with heart [8] (1.1 mg/kg i.v., cumulative 11 mg/kg, 139 days after first administration). For the same compound, the M.T.S. is on record as 6.5 in the data set on heart [8] (1.8 mg/kg i.v., cumulative 18 mg/kg, 78 days after first administration) and 7.1 with heart [8] (2.5 mg/kg i.v., cumulative 17.5 mg/kg, 78 days after first administration). For the same compound, the E1/2 in [7] is -0.775 V. Moreover, the Total cardiotoxicity score in the data set on heart [8] (1.8 mg/kg, 139 days (footnote diamond-solid)) was 8; with heart [8] (affected hearts marked °: 1.1 mg/kg 78 and 139 days, 1.8 and 2.5 mg/kg 78 days), 3-8. Further, the mortality rate entry in the data set on heart [8] (high dose (2.5 mg/kg/day), administration suspended after 7 dosings) was “high mortality rate”. For the same compound, the “antitumor efficacy against leukemia at the dose and schedule employed” value in the data set with leukemia was “equally effective”. For the same compound, the “M.T.S. (Mean Total Score)” value with heart [4] (setting [19]) is recorded as 6. The “Heart Weight (%)” value with heart [4] (setting [19]) is -44%. The leukopenia vs. controls in the data set on bone marrow worked out at 70%.
`COc1cccc2c1C(=O)c1c(O)c3c(c(O)c1C2=O)C[C@@](O)(C(C)=O)C[C@@H]3O[C@H]1C[C@H](N)[C@H](O)[C@H](C)O1` [daunorubicin]: in the data set on tumors, the “cardiac toxicity (background)” value was “severe cumulative and irreversible cardiac toxicity”; the antitumor activity entry is reported as “outstanding antitumor activity”. Besides, in [7], the E1/2 was -0.625 V.
